{"source": "patent US20130116224A1", "about": "“Method and Composition for Treatment of Tumors” (priority 2010, published 2013)", "key": {"LNCaP [1]": {"tested_on": "LNCaP", "assay": "In vitro anti-cancer efficacy study of CTC-96, ATCC recommended growth condition (protocol GP687), cell viability and proliferation assay (RFU)", "type": "cell-based, human", "protocol": "(§1) B. In Vitro Anti-Cancer Efficacy Study of CTC-96 in Cell Lines Maintained in ATCC Recommended Growth Condition Using Approved Protocol GP687\n(§2) For example in FIG. 2C, on day 2 with 20 μg/mL CTC-96. […] This difference among the cell lines was quite consistent at all initial seeding densities except for the highest (100%). At the three lower density seedings, the decrease in relative fluorescence units (RFU) was in a near linear relationship with increase of CTC-96 dose for LNCaP and RWPE cells. Both cell types began to show a response to CTC-96 at 5 μg/mL. (see FIGS. 2 C and D).\n(§3) When cell proliferation data were obtained for all time points, the RFU reading on day 3 was considerably lower than the projected trend line as shown in FIG. 1. The possible cause was the variation in the incubation time as described in GP687 9.5.2.3. […] Due to time constraints, the incubation time carried out was shorter on day three than for the […]. The longer the incubation time, the greater the RFLI measured. Therefore, day 3 incubation data were not included in the analysis, see FIG. 2. […] Different cell density seedings allowed this study to maximally evaluate the anticancer efficacy of CTC-96. In vitro anticancer effectiveness can be categorized into: killing and inhibiting effects. High density seeding provides maximal numbers of cells to reveal the killing effect, which leads to extensive cell death with quick onset. Also high cell density sometimes provides some protection against cytotoxic effects. Low density seeding reduces the effects of contact inhibition in non-malignant cell lines and allows longer incubation with the drug. The longer treatment time allows observation of maximum inhibitory drug effects. In addition, low density cell seeding allows untreated cells to undergo several cell divisions.\n(§4) In this study, four seeding densities of 100%, 50%, 25% and 12.5% were planned for each cell line."}, "Malme-3M [2]": {"tested_on": "Malme-3M", "assay": "In vitro anti-cancer efficacy study of CTC-96, ATCC recommended growth condition (protocol GP687), cell viability and proliferation assay (RFU)", "type": "cell-based, human", "settings": "day 2, 20 μg/mL CTC-96, FIG. 2C, ATCC recommended medium", "protocol": "as §1, §2, §3, §4"}, "IMR": {"tested_on": "IMR", "assay": "In vitro anti-cancer efficacy study of CTC-96, ATCC recommended growth condition (protocol GP687), cell viability and proliferation assay (RFU)", "type": "cell-based", "settings": "day 2, 20 μg/mL CTC-96, FIG. 2C, ATCC recommended medium", "protocol": "as §1, §2, §3, §4"}, "RWPE": {"tested_on": "RWPE", "assay": "In vitro anti-cancer efficacy study of CTC-96, ATCC recommended growth condition (protocol GP687), cell viability and proliferation assay (RFU)", "type": "cell-based", "protocol": "as §1, §2, §3, §4"}, "LNCaP [3]": {"tested_on": "LNCaP", "assay": "CTC-96 7-day treatment in RPMI1640/2% FBS (GP689 modified) and confirmation study, cell viability and proliferation assay", "type": "cell-based, human", "protocol": "(§5) The study was performed as described in GP689 with modifications as follows:\n(§6) The cell growth and test media was RPM11640/2% FBS. All cell lines were acclimated in this low-serum condition for about two weeks prior to treatment with CTC-96. CTC-96 treatment was extended to 7 days from the 3 days previously used. Cell viability and proliferation was measured and medium was changed on day 0, 2, 4 and 7. Fresh CTC-96 added during every medium change. Incubation for cell viability and proliferation assay was performed for 2 hours.\n(§7) A new batch of all four test cell lines were acclimated in RPMII 640/2% FBS about 10 days prior to CTC-96 treatment. CTC-96 treatment started after […] of adaptation. A 96-well plate was used at the at the start of proliferation in an attempt to eliminate the peeling of LNCaP monolayers. A manual multichannel pipette was utilized to change medium on day 0. Peeling still occurred in one plate. That plate was arbitrarily assigned the last time point day 7 in order to have good plates of LNCaP for the first three time points in a row.\n(§8) For medium changes on days 2, 4 and 7, only half of the media was replaced to completely eliminate the peeling in LNCaP. This method was utilized for the other three cell lines in order to keep the entire test system consistent for all the cell lines. The replacement media contained 1×CTC-96 concentrations and therefore only half of CTC-96 was freshly replaced. Incubation for cell viability and proliferation assay was performed for strictly 2 hours. Allover proliferation was good for all cell lines (see FIG. 6). Untreated ENCaP cells became 100% confluent in all seeding conditions on day 7. […] 4.2.5.2.1.3. The day 4 RFU reading was chosen in the proliferation percentage analysis because the peeling off in LNCaP Day 7 plate led to decrease on RFU so much that the trendline of untreated cells turned downwards instead of plateauing in high density seeding, (see FIG. 6 Al 3). Decay of CTC-96 may occur over 7 days period and inhibition might be lowered towards the end of treatment. The upward turn of the trendline for malignant cell lines in 5 μg/mL may indicate this decay, (see FIG. 6 A2-3, CI-4). Malignant cell lines were more sensitive to CTC-96 than their sister normal cell lines."}, "Malme-3M [4]": {"tested_on": "Malme-3M", "assay": "CTC-96 7-day treatment in RPMI1640/2% FBS (GP689 modified) and confirmation study, cell viability and proliferation assay", "type": "cell-based, human", "protocol": "as §5, §6, §7, §8"}, "IMR 90": {"tested_on": "IMR 90", "assay": "CTC-96 7-day treatment in RPMI1640/2% FBS (GP689 modified) and confirmation study, cell viability and proliferation assay", "type": "cell-based", "protocol": "as §5, §6, §7, §8"}, "RWPE-1": {"tested_on": "RWPE-1", "assay": "CTC-96 7-day treatment in RPMI1640/2% FBS (GP689 modified) and confirmation study, cell viability and proliferation assay", "type": "cell-based", "protocol": "as §5, §6, §7, §8"}, "[5]": {"settings": "20 μg/mL CTC-96, day 2 vs day 0"}, "[6]": {"settings": "FIGS. 2C and D, lower density seedings"}, "[7]": {"settings": "day 2, 20 μg/mL CTC-96, FIG. 2C, ATCC recommended medium"}}}
{"smiles": "CC(/C=C(/C)[O-])=NCCN=C(C)/C=C(/C)[O-].Cc1ncc[nH]1.Cc1ncc[nH]1.[Br-].[Co+3]", "note": "[CTC-96]", "values": [{"measurement": "killing effect (net cell loss)", "setting": "LNCaP [1]; [5]", "value": "lower number of cell on day 2 than on day 0"}, {"measurement": "concentration at which cells began to show a response", "setting": "LNCaP [1]; [6]", "value": 5, "unit": "µg/mL"}, {"measurement": "total cells in comparison to untreated controls", "setting": "LNCaP [1]; [7]", "value": 12, "unit": "%"}, {"measurement": "total cells in comparison to untreated controls", "setting": "Malme-3M [2]", "value": 70, "unit": "%"}, {"measurement": "total cells in comparison to untreated controls", "setting": "IMR", "value": 72, "unit": "%"}, {"measurement": "killing effect (net cell loss)", "setting": "RWPE; [5]", "value": "lower number of cell on day 2 than on day 0"}, {"measurement": "concentration at which cells began to show a response", "setting": "RWPE; [6]", "value": 5, "unit": "µg/mL"}, {"measurement": "total cells in comparison to untreated controls", "setting": "RWPE; [7]", "value": 10, "unit": "%"}, {"measurement": "cell number relative to originally seeded", "setting": "LNCaP [3]; 5 μg/mL CTC-96, RPMI1640/2% FBS, 7-day treatment, FIG. 4A", "value": "almost no change, or even had fewer cells than originally seeded"}, {"measurement": "inhibition (proliferation percentage, day 4 RFU)", "setting": "LNCaP [3]; 5 μg/mL, confirmation study, FIG. 7", "value": "greater inhibition"}, {"measurement": "proliferation", "setting": "LNCaP [3]; 25% cell density, 5 t μm/mL", "value": "proliferation completely ceases"}, {"measurement": "proliferation diminished", "setting": "LNCaP [3]; 50% cell density, 5 μm/mL CTC-96, RPMI 1640/2% FBS", "value": "30-40%"}, {"measurement": "decrease in cell number compared to un-treated controls", "setting": "LNCaP [3]; initial seeding densities of 50% and 25%, 5 μm/mL CTC-96", "value": "30-50%"}, {"measurement": "proliferation", "setting": "Malme-3M [4]; Malme 3M, 1 μg/mL", "value": "ceases proliferating"}, {"measurement": "cell elimination / proliferation", "setting": "Malme-3M [4]; Malme 3M, 5 μg/mL drug concentration", "value": "not killed, but stopped proliferating"}, {"measurement": "cell number relative to originally seeded", "setting": "Malme-3M [4]; Malme-3M, 5 μg/mL CTC-96, RPMI1640/2% FBS, 7-day treatment, FIG. 4C", "value": "almost no change, or even had fewer cells than originally seeded"}, {"measurement": "inhibition (proliferation percentage, day 4 RFU)", "setting": "Malme-3M [4]; Malme-3M, 5 μg/mL, confirmation study, FIG. 7", "value": "greater inhibition"}, {"measurement": "proliferation", "setting": "IMR 90; IMR 90, 5 μg/mL", "value": "continues proliferating"}, {"measurement": "proliferation", "setting": "IMR 90; IMR, 10 μg/mL CTC-96, RPMI1640/2% FBS, 7-day treatment", "value": "inhibited the proliferation"}, {"measurement": "inhibition (proliferation percentage, day 4 RFU)", "setting": "IMR 90; IMR, 10 μg/mL, confirmation study, FIG. 7", "value": "lower degree of inhibition"}, {"measurement": "proliferation", "setting": "RWPE-1; RWPE, 10 μg/mL CTC-96, RPMI1640/2% FBS, 7-day treatment", "value": "inhibited the proliferation"}, {"measurement": "inhibition (proliferation percentage, day 4 RFU)", "setting": "RWPE-1; RWPE, 10 μg/mL, confirmation study, FIG. 7", "value": "lower degree of inhibition"}, {"measurement": "proliferation", "setting": "RWPE-1; RWPE-1, 25% cell density, 5 t μm/mL", "value": "still proceeds proliferating, albeit, at a reduced rate"}, {"measurement": "proliferation", "setting": "RWPE-1; RWPE-1, 50% cell density, same drug concentration (5 μm/mL)", "value": "minimally affected"}, {"measurement": "cell elimination (cell loss)", "setting": "RWPE-1; RWPF-1 (non-malignant counterpart), seeding densities 50% and 25%, concentration that killed the malignant cell line", "value": "no cell loss"}]}
